Measurements from article PMC4798002 (Bioorganic & medicinal chemistry letters, 2014).
In brackets after ≈: the same amount, converted by molar mass. Where two headings read alike, the source gives them in different places.

Tests used:
ANT(2″)-Ia [1] = molecular target: T1, ANT(2″)-Ia (Klebsiella pneumoniae, UniProt P0AE05); assay: ANT; assay type: biochemical; settings: for fold less potent than β-thujaplicinol: relative to β-thujaplicinol; for fold increase in activity over the other synthetic α-hydroxytropolones: relative to other synthetic α-hydroxytropolones
[2] = system: hyper-permeable, ANT(2″)-Ia-expressing strain of E. coli BW25113; assay: Checkerboard analysis with gentamicin against ANT; assay type: cell-based; settings: for synergy with gentamicin (in words): ANT(2″)-Ia-expressing E. coli
[3] = system: isogenic E. coli mutant with the gene encoding aminoglycoside phosphotransferase (APH[2″]-Id); assay: Checkerboard analysis with gentamicin against APH; assay type: cell-based; settings: ANT(2″)-Ia-negative, APH(2″)-Id-positive bacteria
ANT(2″)-Ia [4] = molecular target: T1, ANT(2″)-Ia; settings: cited from earlier work
[5] = system: E. coli BW25113 wild type; assay: Gentamicin MIC against wild type E. coli; assay type: cell-based; settings: Escherichia coli, BW25113, read-out: gentamicin MIC
[6] = purified enzyme, 96 well format

T1 sequence (P0AE05 whole entry): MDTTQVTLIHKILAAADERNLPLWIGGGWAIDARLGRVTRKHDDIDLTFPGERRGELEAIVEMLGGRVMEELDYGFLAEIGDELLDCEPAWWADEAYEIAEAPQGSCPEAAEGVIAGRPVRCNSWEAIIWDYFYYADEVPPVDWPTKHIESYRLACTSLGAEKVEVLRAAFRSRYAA

Row | SMILES | ANT(2″)-Ia inhibitory activity (in words) (ANT(2″)-Ia [1]; [6]) | synergy with gentamicin (in words) [2] | other results
1 | Cc1cc(O)c(=O)c(O)cc1-c1ccccc1 [3i] | comparable potency to nitroaryl-containing 3g |  | 
2 | CC(=O)c1cc(O)c(=O)c(O)cc1C [3e] | significant inhibitory potency | Synergy | fold less potent than β-thujaplicinol (ANT(2″)-Ia [1]): 5–10 fold; gentamicin concentration at which no growth is seen ([2]; 50 μM of compound, lowest concentration of gentamicin tested): ≤ 2 µg/mL
3 | CC(C)c1ccc(O)c(=O)c(O)c1 [β-thujaplicinol] |  |  | antibacterial effect of compound (in words) ([2]; 50 μM of compound): all of the bacterial cells have died; synergy with gentamicin (in words) [3]: no synergy; ANT(2″)-Ia inhibition (in words) (ANT(2″)-Ia [4]): capable of inhibiting
4 | COc1cc(C)c(-c2ccc([N+](=O)[O-])cc2)cc(O)c1=O [4g] |  |  | ANT(2″)-Ia inhibitory activity (in words) (ANT(2″)-Ia [1]): inactive
5 | Cc1cc(O)c(=O)c(O)cc1-c1ccc(-c2ccccc2)cc1 [3h] |  | no synergistic activity | 
6 | Cc1cc(O)c(=O)c(O)cc1-c1ccc2ccccc2c1 [3k] | no activity at all |  | 
7 | Cc1cc(O)c(=O)c(O)cc1C(=O)C1CCCCC1 [3p] | inactivity |  | 
8 | Cc1cc(O)c(=O)c(O)cc1C(=O)C(C)C [3o] | appreciable inhibitory activity, which was comparable to 3e |  | 
9 | O=c1c(O)ccccc1O [α-hydroxytropolone] |  |  | ANT(2″)-Ia inhibition (in words) (ANT(2″)-Ia [4]): capable of inhibiting
10 | Cc1cc(O)c(=O)c(O)cc1-c1ccc(C(F)(F)F)cc1 [3n] | no activity at all | Synergy | 
11 | Cc1cc(O)c(=O)c(O)cc1-c1ccc(Br)cc1 [3l] |  | no synergistic activity | fold increase in activity over the other synthetic α-hydroxytropolones (ANT(2″)-Ia [1]): ~4 fold
12 | Cc1cc(O)c(=O)c(O)cc1-c1ccc(Cl)cc1 [3m] |  | no synergistic activity | fold increase in activity over the other synthetic α-hydroxytropolones (ANT(2″)-Ia [1]): ~4 fold
13 | O=c1cccccc1O [Tropolone] |  |  | ANT(2″)-Ia inhibition (in words) (ANT(2″)-Ia [4]): no activity
14 | Cc1cc(O)c(=O)c(O)cc1-c1cccc2ccccc12 [3j] | no activity at all |  | 
15 | Cc1cc(O)c(=O)c(O)cc1C(=O)CC1CCCCC1 [3q] | inactivity |  | 
16 | Cc1cc(O)c(=O)c(O)cc1-c1ccc([N+](=O)[O-])cc1 [3g] | significant inhibitory potency | no synergistic activity | fold less potent than β-thujaplicinol (ANT(2″)-Ia [1]): 5–10 fold
17 | COc1cc(C)c(C(C)=O)cc(O)c1=O [4e] |  |  | ANT(2″)-Ia inhibitory activity (in words) (ANT(2″)-Ia [1]): inactive
18 | CNC(C)C1CCC(N)C(OC2C(N)CC(N)C(OC3OCC(C)(O)C(NC)C3O)C2O)O1 (centres unmarked) [gentamicin, reference compound] |  |  | MIC ([2]; Escherichia coli, BW25113, read-out: gentamicin MIC): 64 µg/mL; MIC [5]: 0.25 µg/mL (≈ 0.523 µM)
